The values below come from patent US20030152986A1, “Method for sorting antifungal molecules acting on the glucanosyltransferase activity” (Institut Pasteur, priority 1996, published 2003).

Series [1] deals with T1, 49 kDa β-(1-3)-glucanosyltransferase (BGT2) (Aspergillus fumigatus, UniProt B0XT72).
T1 construct: from tissue; host or cells: Aspergillus fumigatus CBS 144-89 mycelium, cell wall autolysate; four ion-exchange steps and one gel filtration
In words: Transferase assay with reduced (^3H-marked) laminarioligosaccharides, products separated by HPAEC. The series is classed as biochemical. The settings on record: for activity of the transferase towards the substance as substrate/donor: incubation with 49 kDa transferase, HPAEC analysis of products. How it is done:
The enzyme fractions were assayed for transferase activity by incubation in 50 mM Na citrate, pH 5.0 at 37° C. (10 μl volume per assay) with a laminarioligosaccharide reduced with borohydride (8 mM final) of at least size G10. Samples (3 μl) were taken at different times, 50 mM NaOH cooled in ice (47 μl) was added to terminate the reaction, and the mixture was frozen until analyzed by high-performance anion-exchange chromatography (HPAEC). Since the peak intensities detected by Pulsed Electrochemical Detector (PED) varied from day to day, the transferase activity was quantified by use of reduced laminarioligosaccharides marked with ^3H as substrates and measurement of the appearance of the marking in the products after separation by HPAEC chromatography, using the on-line Radiomatic 150TR scintillation rate analysis apparatus (Packard).
Except where otherwise mentioned, the assays for the enzyme characterization studies were performed as above with 0.25 μg of purified transferase.
The samples from the transferase tests were analyzed on a Dionex CarboPac PA1 analytical column (4×250 mm) (with a PA1 reference column) on a Dionex HPAEC-type system with pulsed electrochemical detection (PED-2 cell), fitted with a combination of pH-Ag/AgCl reference electrodes and using a potential of 0.4 V for the first 0.5 s of detection. The oligosaccharides were eluted under the following conditions: flow rate 1 ml/min, buffer A: 50 mM NaOH; buffer B: 500 mM sodium acetate in 50 mM NaOH; gradient 0 to 2 min, 98% A 2% B (isocratic), 2 to 15 min 75% A 25% B (linear), 15 to 45 min 60% A 40% B (linear).
In order to determine the relative reaction rate of the enzymes with laminarioligosaccharides of variable sizes, the 49 kDa enzyme (0.25 μg) was incubated with 8 mM of rG10 to rG15 marked with ^3H and the rate of formation of the marked products was measured. The rate with rG10 (328 nmol.min^−1) was approximately equal to 50% of that with the larger substrates and there was no significant difference between the reaction rates for rG11 to rG15 (648±46 nmol.min^−1.mg protein^−1).
The relative rate of the reaction with the acceptors was determined by using 2 mM of rG11 as donor and 32 mM of reduced acceptor marked with ^3H and measuring the formation of marked transferase product (FIG. 4). Under these conditions, the reaction with rG11 used as acceptor was negligible. The reaction rate increased with an increase in chain length, showing that the 49 kDa enzyme prefers the larger laminarioligosaccharide acceptors.
By using rG11 as substrate, it was impossible to calculate an apparent Km corresponding to the two steps of the reaction. In order to determine a Km for the donor site, we used an acceptor which was not a donor. We used [^3H]-rG7 (1×10^6 cpm) as acceptor at a high concentration (64 mM) with different concentrations of rG11 kept below 8 mM. Under these conditions, the reaction took place with rG11 as donor and rG7 was used rather than rG11 as acceptor, as determined by the absence of formation of the transferase product rG16. The initial reaction rate was determined by measuring the appearance of marked rG12.

A further series deals with T2, 49 kDa enzyme (Aspergillus fumigatus, UniProt B0XT72).
T2 construct: from tissue; host or cells: Aspergillus fumigatus CBS 144-89 mycelium, cell wall autolysate; four ion-exchange steps and one gel filtration
T2 sequence (B0XT72 whole entry, looked up): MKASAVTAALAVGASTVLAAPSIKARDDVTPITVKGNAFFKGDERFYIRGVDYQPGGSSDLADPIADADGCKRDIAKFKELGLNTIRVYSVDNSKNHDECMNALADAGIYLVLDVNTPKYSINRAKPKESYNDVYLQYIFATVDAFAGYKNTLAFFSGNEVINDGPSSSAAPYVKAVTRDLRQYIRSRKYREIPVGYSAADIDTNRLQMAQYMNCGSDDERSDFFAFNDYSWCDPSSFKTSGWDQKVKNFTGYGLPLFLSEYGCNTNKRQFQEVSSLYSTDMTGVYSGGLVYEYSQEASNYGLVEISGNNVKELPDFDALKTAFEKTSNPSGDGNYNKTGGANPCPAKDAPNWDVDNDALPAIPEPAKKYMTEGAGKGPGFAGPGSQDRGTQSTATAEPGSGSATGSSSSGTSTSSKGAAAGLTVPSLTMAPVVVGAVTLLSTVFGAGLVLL
In words: Optimum pH and storage stability of the 49 kDa enzyme. The series is classed as biochemical. The method, then:
FIG. 6 illustrates the effect of pH on the transfer rate. The 49 kDa transferase was incubated with 8 μM of [^3H]-rG11 (1×10^6 cpm). The reaction rates were determined by measuring the quantity of marking formed in the form of the product rG16. The buffers used were: ●, sodium citrate/citric acid; ∘, imidazole/citric acid; x, sodium acetate/acetic acid; [formula], Tris/glycine; ▴, phosphate/NaOH; □, Tris/acetic acid; Δ, glycine/HCl.
The 49 kDa enzyme was tested at different pH values, the storage stability was verified and the activity of the N-glycosylated enzyme was tested. The enzyme was active over a wide range of acid pH, showing an activity of more than 50% of its maximum between pH 2.5 and 6.0.

For the molecule `OC[C@H]1O[C@@H](O[C@H]2[C@H](O)[C@@H](O)[C@H](O[C@H]3[C@H](O)[C@@H](O)[C@H](O[C@H]4[C@H](O)[C@@H](O)[C@H](O[C@H]5[C@H](O)[C@@H](O)C(O)O[C@@H]5CO)O[C@@H]4CO)O[C@@H]3CO)O[C@@H]2CO)[C@H](O)[C@@H](O)[C@@H]1O` (stereo partly shown) [ceflopentaose], in series [1], the “activity of the transferase towards the substance as substrate/donor” value (from here on “activity … as substrate/donor”) is recorded as “no activity”. With chitohexaose, the “activity … as substrate/donor” value in series [1] was “no activity”.

For gentiooligosaccharides, in series [1], the “activity … as substrate/donor” value was “no activity”. Still for that read-out and setting: as for maltoheptaose, the entry is “no activity”. As to reduced laminarihexose [[^3H]-rG6], the Transfer rate in series [1] (2 mM rG11 as donor, 32 mM ^3H-marked reduced acceptor, initial rate of formation of transfer product) worked out at 387 nmol.min^−1.mg protein^−1.

B1: 49 kDa enzyme: β-(1-3)-glucanosyltransferase purified from cell wall autolysate of A. fumigatus, SEQ ID NO 2/3 (protein, listed as Aspergillus fumigatus)
chain 1: MKASAVTAALAVGASTVLAAPSIKARDDVTPITVKGNAFFKGDERFYIRGVDYQPGGSSDLADPIADADGCKRDIAKFKELGLNTIRVYSVDNSKNHDECMNTLADAGIYLVLDVNTPKYSINRAKPKESYNDVYLQYIFATVDAFAGYKNTLAFFSGNEVINDGPSSSAAPYVKAVTRDLRQYIRSRKYREIPVGYSAADIDTNRLQMAQYMNCGSDDERSDFFAFNDYSWCDPSSFKTSGWDQKVKNFTGYGLPLFLSEYGCNTNKRQFQEVSSLYSTDMTGVYSGGLVYEYSQEASNYGLVEISGNNVKELPDFDALKTAFEKTSNPSGDGNYNKTGGANPCPAKDAPNWDVDNDALPAIPEPAKKYMTEGAGKGPGFAGPGSQDRGTQSTATAEPGSGSATGSSSSGTSTSSKGAAAGLTVPSLTMAPVVVGAVTLLSTVFGAGLVLL
chain 2: DDVTPITVKGNAFFKGDERFYIRGVDYQPGGSSDLADPIADADGCKRDIAKFKELGLNTIRVYSVDNSKNHDECMNTLADAGIYLVLDVNTPKYSINRAKPKESYNDVYLQYIFATVDAFAGYKNTLAFFSGNEVINDGPSSSAAPYVKAVTRDLRQYIRSRKYREIPVGYSAADIDTNRLQMAQYMNCGSDDERSDFFAFNDYSWCDPSSFKTSGWDQKVKNFTGYGLPLFLSEYGCNTNKRQFQEVSSLYSTDMTGVYSGGLVYEYSQEASNYGLVEISGNNVKELPDFDALKTAFEKTSNPSGDGNYNKTGGANPCPAKDAPNWDVDNDALPAIPEPAKKYMTEGAGKGPGFAGPGSQDRGTQSTATAEPGSGSATGSSSSGTSTSSKGAAAGLTVPSLTMAPVVVGAVTLLSTVFGAGLVLL
Take B1: the storage stability entry with 49 kDa enzyme (4° C. in 10 mM citrate buffer pH 5.0 for several weeks, speed-vac dried and re-suspended, or −20° C.) is “without significant loss of activity”. In the series with 49 kDa enzyme (citrate buffer), the pH optimum entry is given as “about 5.0”.
